The record followed here is patent publication US8883792B2, “Substituted isoquinoline derivative” (D. Western Therapeutics Institute, Inc., priority 2010, dated 2014).

Experiment [1] has as its system rabbits (New Zealand White). Briefly: Ocular hypotensive effect in rabbits. It counts as in vivo, rabbit. The conditions noted are these: male New Zealand White rabbits, 0.04 mL eye drop, concentration of 1% (w/v) or lower, maximum ocular hypotensive rate vs vehicle-treated contralateral eye. The procedure, abridged: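 Male New Zealand White rabbits (3–6 per group) received 0.04 mL compound solution (pH 7.0 phosphate/NaCl vehicle or 2% boric acid) in one eye and vehicle in the other. IOP measured by rebound tonometer before dosing and over time; ocular hypotensive rate taken as treated-eye IOP relative to vehicle-eye IOP.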

Experiment [2] concerns spontaneously hypertensive rats (SHR/Izm). The experiment is described as follows: Blood pressure lowering effect in spontaneously hypertensive rats. It counts as in vivo. Conditions: Rattus norvegicus, ip, male SHR/Izm rats, intraperitoneal, measured over time, read-out: lowered the systolic blood pressures by up to, compared with the value before administration. How it is done: The compound of the present invention was intraperitoneally administered to spontaneously hypertensive rats (SHR/Izm, sex: male, 4 to 6 rats per group) and evaluated for its blood pressure lowering effect. The compounds of Examples 5, 23, 25, 35, 36, 53, 58, 83, 84, 86, 87, and 90 were used as test compounds.
Each test compound was dissolved in saline and diluted to prepare a test compound solution with a predetermined concentration.
The test compound was intraperitoneally administered at a dose of 10 mg/kg to the animals, and their blood pressures and pulse rates were measured over time using Softron Indirect Blood Pressure Meter BP-98A.

Structures can show the parent of a compound that is named as a salt.

Consider `C[C@H](CNCCCCc1ccccc1)NS(=O)(=O)c1ccc2cnccc2c1` [Example 35, (R)—N-{1-(4-phenylbutylamino)propan-2-yl}isoquinoline-6-sulfonamide dihydrochloride], for which the Ocular hypotensive activity result in experiment [1] is recorded as “++ (maximum ocular hypotensive rate of 15% or more)”. In addition, in experiment [2], the inhibition in vivo at 10 mg/kg was no more than 20%. In the same order, the values of `C[C@H](CNC[C@@](C)(O)c1ccccc1)NS(=O)(=O)c1ccc2cnccc2c1.Cl` [Example 86, N—[(R)-1-{(S)-2-hydroxy-2-phenylpropylamino}propan-2-yl]isoquinoline-6-sulfonamide hydrochloride] are “++ (maximum ocular hypotensive rate of 15% or more)” and no less than 30%.

On to `C[C@H](CNC[C@H](C)c1ccccc1)NS(=O)(=O)c1ccc2cnccc2c1` [Example 25, N—[(R)-1-{(R)-2-phenylpropylamino}propan-2-yl]isoquinoline-6-sulfonamide dihydrochloride], for which, in experiment [1], the Ocular hypotensive activity result is given as “++ (maximum ocular hypotensive rate of 15% or more)”. In addition, in experiment [2], the inhibition in vivo at 10 mg/kg is no less than 30%. The like results for `C[C@H](CNCCc1ccccc1)NS(=O)(=O)c1ccc2cnccc2c1` [Example 23, (R)—N-{1-(phenethylamino)propan-2-yl}isoquinoline-6-sulfonamide dihydrochloride] were, in that order, “++ (maximum ocular hypotensive rate of 15% or more)” and no less than 30%. The like results for `Cc1ccc(CCNC[C@@H](C)NS(=O)(=O)c2ccc3cnccc3c2)cc1.Cl` [Example 58, (R)—N-{1-(4-methylphenethylamino)propan-2-yl}isoquinoline-6-sulfonamide hydrochloride] were, in that order, “++ (maximum ocular hypotensive rate of 15% or more)” and no less than 30%. In the same order, the values of `C[C@H](CNC[C@@H](O)c1ccc(F)cc1)NS(=O)(=O)c1ccc2cnccc2c1.Cl` [Example 84, N—[(R)-1-{(S)-2-(4-fluorophenyl)-2-hydroxyethylamino}propan-2-yl]isoquinoline-6-sulfonamide hydrochloride] are “++ (maximum ocular hypotensive rate of 15% or more)” and no more than 20%.

Regarding `C[C@H](CNCCc1ccccc1F)NS(=O)(=O)c1ccc2cnccc2c1` [Example 31, (R)—N-{1-(2-fluorophenethylamino)propan-2-yl}isoquinoline-6-sulfonamide dihydrochloride], the Ocular hypotensive activity entry in experiment [1] is “++ (maximum ocular hypotensive rate of 15% or more)”. Still for that read-out and setting: in the case of `C[C@H](CNCCc1cc2ccccc2[nH]1)NS(=O)(=O)c1ccc2cnccc2c1.Cl` [Example 74, (R)—N-[1-{2-(1H-indol-2-yl)ethylamino}propan-2-yl]isoquinoline-6-sulfonamide hydrochloride] it was “++ (maximum ocular hypotensive rate of 15% or more)”. Still for that read-out and setting: in the case of `Cc1cccc(CCNC[C@@H](C)NS(=O)(=O)c2ccc3cnccc3c2)c1.Cl` [Example 57, (R)—N-{1-(3-methylphenethylamino)propan-2-yl}isoquinoline-6-sulfonamide hydrochloride] it was “++ (maximum ocular hypotensive rate of 15% or more)”; in that of `C[C@H](CNCCc1ccc(F)cc1)NS(=O)(=O)c1cc2ccncc2cc1Br.Cl` [Example 76, (R)-7-bromo-N-{1-(4-fluorophenethylamino)propan-2-yl}-isoquinoline-6-sulfonamide hydrochloride], “++ (maximum ocular hypotensive rate of 15% or more)”.

As for `C[C@@H](NS(=O)(=O)c1ccc2cnccc2c1)[C@@H](N)CCCc1ccccc1` [Example 117, N-{(2R,3S)-3-amino-6-phenylhexan-2-yl)isoquinoline-6-sulfonamide hydrochloride], the Ocular hypotensive activity result in experiment [1] was “++ (maximum ocular hypotensive rate of 15% or more)”.

As to `CCCCNC[C@@H](C)N(CC)S(=O)(=O)c1ccc2cnccc2c1.Cl` [Example 96, (R)—N-[1-(butylamino)propan-2-yl]-N-ethylisoquinoline-6-sulfonamide hydrochloride], the Ocular hypotensive activity entry in experiment [1] is listed as “++ (maximum ocular hypotensive rate of 15% or more)”. Same read-out and setting: next, `Cc1ccccc1CCNC[C@@H](C)NS(=O)(=O)c1ccc2cnccc2c1.Cl` [Example 56, (R)—N-{1-(2-methylphenethylamino)propan-2-yl}isoquinoline-6-sulfonamide hydrochloride]: “++ (maximum ocular hypotensive rate of 15% or more)”; `C[C@H](CNC(=O)Cc1ccccc1)NS(=O)(=O)c1ccc2cnccc2c1.Cl` [Example 103, (R)—N-{2-(isoquinoline-6-sulfonamido)propyl}-2-phenylacetamide hydrochloride]: “++ (maximum ocular hypotensive rate of 15% or more)”; `C[C@H](CNCCc1ccc(Br)cc1)NS(=O)(=O)c1ccc2cnccc2c1.Cl` [Example 55, (R)—N-{1-(4-bromophenethylamino)propan-2-yl}isoquinoline-6-sulfonamide hydrochloride]: “++ (maximum ocular hypotensive rate of 15% or more)”. Still for that read-out and setting: in the case of `CCCCCNC[C@@H](C)NS(=O)(=O)c1ccc2cnccc2c1` [Example 19, (R)—N-{1-(pentylamino)propan-2-yl}isoquinoline-6-sulfonamide dihydrochloride] it was “++ (maximum ocular hypotensive rate of 15% or more)”; in that of `C[C@H](CNCCc1ccsc1)NS(=O)(=O)c1ccc2cnccc2c1.Cl` [Example 41, (R)—N-[1-{2-(thiophen-3-yl)ethylamino}propan-2-yl]isoquinoline-6-sulfonamide hydrochloride], “++ (maximum ocular hypotensive rate of 15% or more)”. Same read-out and setting: next, `C=CCNCCNS(=O)(=O)c1ccc2cnccc2c1` [Example 10, N-{2-(allylamino)ethyl}isoquinoline-6-sulfonamide dihydrochloride]: “++ (maximum ocular hypotensive rate of 15% or more)”; `C[C@H](CNCCc1ccc(Cl)cc1)NS(=O)(=O)c1ccc2cnccc2c1` [Example 39, (R)—N-{1-(4-chlorophenethylamino)propan-2-yl}isoquinoline-6-sulfonamide dihydrochloride]: “++ (maximum ocular hypotensive rate of 15% or more)”; `C[C@H](CNCCOc1ccccc1)NS(=O)(=O)c1ccc2cnccc2c1` [Example 45, (R)—N-{1-(2-phenoxyethylamino)propan-2-yl}isoquinoline-6-sulfonamide dihydrochloride]: “++ (maximum ocular hypotensive rate of 15% or more)”. For `C[C@H](CNCCC1CCCCC1)NS(=O)(=O)c1ccc2cnccc2c1` [Example 33, (R)—N-{1-(2-cyclohexylethylamino)propan-2-yl}isoquinoline-6-sulfonamide dihydrochloride], in experiment [1], the Ocular hypotensive activity entry is recorded as “++ (maximum ocular hypotensive rate of 15% or more)”. Still for that read-out and setting: next, `CCC(C)CNC[C@@H](C)NS(=O)(=O)c1ccc2cnccc2c1` (stereo partly drawn) [Example 20, N-(2R)-{1-(methylbutylamino)propan-2-yl}isoquinoline-6-sulfonamide hydrochloride]: “++ (maximum ocular hypotensive rate of 15% or more)”; `C=C(C)CNC[C@@H](C)NS(=O)(=O)c1ccc2cnccc2c1.Cl` [Example 78, (R)—N-{1-(2-methylallylamino)propan-2-yl}isoquinoline-6-sulfonamide hydrochloride]: “++ (maximum ocular hypotensive rate of 15% or more)”; `C[C@H](CNCCc1ccncc1)NS(=O)(=O)c1ccc2cnccc2c1` [Example 42, (R)—N-[1-{2-(pyridin-4-yl)ethylamino}propan-2-yl]isoquinoline-6-sulfonamide trihydrochloride]: “+ (maximum ocular hypotensive rate of 5% or more and less than 15%)”.

Consider `Cl.O=S(=O)(NCCNCCc1ccccc1)c1ccc2cnccc2c1` [Example 32, N-{2-(phenethylamino)ethyl}isoquinoline-6-sulfonamide hydrochloride], for which the Ocular hypotensive activity entry in experiment [1] is “++ (maximum ocular hypotensive rate of 15% or more)”.

Regarding `C[C@H](CNCC(C)(C)C)NS(=O)(=O)c1ccc2cnccc2c1` [Example 17, (R)—N-{1-(neopentylamino)propan-2-yl}isoquinoline-6-sulfonamide dihydrochloride], in experiment [1], the Ocular hypotensive activity result is “++ (maximum ocular hypotensive rate of 15% or more)”. With `C[C@H](CNCCC#N)NS(=O)(=O)c1ccc2cnccc2c1.Cl` [Example 73, (R)—N-{1-(2-cyanoethylamino)propan-2-yl}isoquinoline-6-sulfonamide hydrochloride], the Ocular hypotensive activity entry in experiment [1] is “++ (maximum ocular hypotensive rate of 15% or more)”. Same read-out and setting: in the case of `C[C@H](CNCCc1ccc(NC(N)=O)cc1)NS(=O)(=O)c1ccc2cnccc2c1.Cl` [Example 72, (R)—N-{1-(4-ureidophenethylamino)propan-2-yl}isoquinoline-6-sulfonamide hydrochloride] it was “+ (maximum ocular hypotensive rate of 5% or more and less than 15%)”; in that of `C[C@H](CNCCc1ccccc1)NS(=O)(=O)c1ccc2c(O)nccc2c1.Cl` [Example 110, (R)—N-{1-(phenethylamino)propan-2-yl}-1-hydroxyisoquinoline-6-sulfonamide hydrochloride], “++ (maximum ocular hypotensive rate of 15% or more)”.
